The record followed here is patent US20160318933A1, “FUSED PYRAZOLE DERIVATIVE” (SUMITOMO DAINIPPON PHARMA CO., LTD., priority 2013, published 2016).

In the assay the target is T1, human brain-derived dopamine D4 receptor (Homo sapiens, UniProt P21917).
T1 construct: expressed in transfected cells; host or cells: CHO (CHO-K1) or HEK293 cells
T1 sequence (P21917 1-419): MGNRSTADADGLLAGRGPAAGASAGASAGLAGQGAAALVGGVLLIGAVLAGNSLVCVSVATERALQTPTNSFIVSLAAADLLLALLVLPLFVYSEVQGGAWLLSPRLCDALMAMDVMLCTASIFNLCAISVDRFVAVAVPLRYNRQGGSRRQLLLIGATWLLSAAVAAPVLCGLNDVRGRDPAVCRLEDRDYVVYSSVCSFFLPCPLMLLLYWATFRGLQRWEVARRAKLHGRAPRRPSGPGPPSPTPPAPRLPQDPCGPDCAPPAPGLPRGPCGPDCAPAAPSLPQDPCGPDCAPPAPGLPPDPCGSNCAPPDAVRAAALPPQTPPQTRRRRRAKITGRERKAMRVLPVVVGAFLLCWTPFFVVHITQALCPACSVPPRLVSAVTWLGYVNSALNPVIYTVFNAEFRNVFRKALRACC
The assay is described as follows: Agonistic activity in G protein dependent pathway of dopamine D4 receptor (aequorin intracellular calcium luminescence, FDSS). The class given is cell-based. Conditions: for EC50: concentration required to achieve a 50% response of Emax, CHO-K1 or HEK293 cells transfected with D4 receptor; for Emax: read-out: Maximal activity on D4 receptor (%). The source says:
The G protein dependent pathway is a pathway for transmitting signals in cells via a second messenger by stimulating a G protein through the binding of guanosine triphosphate (GTP) to the G protein. When GPCRs are activated by the binding of a ligand, a G protein binds to the GPCRs, and thereby GTP binds to a Gα subunit that is one of G protein subunits and a Gγβ subunit is dissociated. The activated Gα subunit regulates intracellular cAMP levels by the activation or inhibition of an adenylate cyclase, and regulates intracellular calcium levels by the activation of phospholipase C to transmit signals in cells.
The agonistic activities of the present compounds in the G protein dependent pathway were evaluated on the basis of intracellular calcium levels as follows. CHO-K1 or HEK293 cell lines transfected with D4 receptor genes were seeded in a 384-well plate, and incubated in a CO2 incubator at 37° C. for 24 hours, and then a solution of the present compound in DMSO was added into cells preloaded with coelenterazine to measure the change in luminescent signals with a FDSS (Hamamatsu Photonics K.K.). […] The agonistic activity of the present compound was calculated according to the measured luminescent signals, as the maximal activity (Emax) of the present compound. EC50 value was calculated as the concentration of the present compound required to achieve a 50% response of Emax.
On the technique in general: Calcium assays in cells follow changes in intracellular calcium, usually with a dye or a luminescent sensor.

With `Cc1cccnc1-c1cc2n(n1)CCN(Cc1cccc(F)c1)C2` [Example 61], the concentration giving a half-maximal response (EC50) (as a rule, the concentration at which the effect is half-maximal) came to 34 nM and the Emax was 57%.

`Cc1cccnc1-c1cc2n(n1)CCN(Cc1cccc(C#N)c1)C2` [Example 62]: the half-maximal effective concentration (EC50) is 25 nM and the Emax came out at 89%.

With `Cc1cccnc1-c1cc2n(n1)CCN(Cc1cccc(OC(F)(F)F)c1)C2` [Example 63], the EC50 turned out to be 102 nM and the Emax worked out at 40%.

In the case of `Cc1cccnc1-c1cc2n(n1)CCN(Cc1cc(OC(F)(F)F)ccc1F)C2` [Example 64], the EC50 was found to be 108 nM and the Emax worked out at 42%.

As to `Cc1cccnc1-c1cc2n(n1)CCN(Cc1ccc([N+](=O)[O-])cc1)C2` [Example 65], the EC50 turned out to be 20 nM and the Emax is 69%.

Turning to `Cc1cccnc1-c1cc2n(n1)CCN(Cc1ccc(OC(F)(F)F)cc1F)C2` [Example 66], the half-maximal effective concentration (EC50) turned out to be 140 nM and the Emax came out at 52%.

Take `Cc1ccc(CN2CCn3nc(-c4ncccc4C)cc3C2)cn1` [Example 67]: the EC50 was 27 nM and the Emax turned out to be 64%.

Regarding `Fc1cccnc1-c1cc2n(n1)CCN(Cc1ccc(C(F)(F)F)cc1)C2` [Example 68], the EC50 stood at 69 nM and the Emax was found to be 64%.

`N#Cc1ccc(CN2CCn3nc(-c4ncccc4F)cc3C2)cc1` [Example 69]: the EC50 is 59 nM and the Emax amounted to 50%.

On to `Cc1cccnc1-c1cc2n(n1)CCN(Cc1ccc3c(c1)N(C)C(=O)CC3)C2` [Example 70], for which the EC50 amounted to 85 nM and the Emax amounted to 45%.

As to `Cc1cccnc1-c1nn2c(c1C)CN(Cc1ccc(C(F)(F)F)cc1)CC2` [Example 71], the concentration for a half-maximal effect (EC50) came out at 88 nM and the Emax came to 53%.

`Cc1ccc(CN2CCn3nc(-c4ncccc4C)c(C)c3C2)cc1` [Example 72]: the EC50 was determined as 33 nM and the Emax worked out at 65%.

`Cc1cccnc1-c1nn2c(c1C)CN(Cc1ccccc1)CC2` [Example 73]: the EC50 came out at 30 nM and the Emax stood at 58%.

Consider `Cc1c(-c2ccccn2)nn2c1CN(Cc1ccc(C(F)(F)F)cc1)CC2` [Example 74], for which the concentration for a half-maximal effect (EC50) amounted to 73 nM and the Emax was 65%.

On to `Cc1c(-c2ccccn2)nn2c1CN(Cc1ccc(C#N)cc1)CC2` [Example 75], for which the 50% effective concentration (EC50) was 37 nM and the Emax was determined as 61%.

Take `Cc1ccc(CN2CCn3nc(-c4ccccn4)c(C)c3C2)cc1` [Example 76]: the EC50 stood at 44 nM and the Emax came out at 59%.

`Cc1cccnc1-c1cc2n(n1)CCN(Cc1ccc3c(c1)N(C)C(=O)CS3)C2` [Example 77]: the EC50 is 58 nM and the Emax was determined as 62%.

On to `Fc1c(-c2ccccn2)nn2c1CN(Cc1ccccc1)CC2` [Example 78], for which the EC50 is 11 nM and the Emax was found to be 51%.

On to `Fc1cccnc1-c1cc2n(n1)CCN(Cc1ccccc1)C2` [Example 79], for which the 50% effective concentration (EC50) worked out at 3.4 nM and the Emax came to 83%.

With `Cc1cccnc1-c1cc2n(n1)CCN(Cc1ccc(C(F)F)cc1)C2` [Example 80], the concentration giving a half-maximal response (EC50) came out at 18 nM and the Emax was determined as 70%.

In the case of `Cc1c(-c2ccccn2)nn2c1CN(Cc1ccccc1)CC2` [Example 81], the EC50 amounted to 0.7 nM and the Emax was 89%.

As for `Cc1ccc(CN2CCn3nc(-c4ncccc4F)c(C)c3C2)cc1` [Example 82], the EC50 was 46 nM and the Emax came out at 91%.

Regarding `Cc1c(-c2ncccc2F)nn2c1CN(Cc1ccc(C(F)(F)F)cc1)CC2` [Example 83], the 50% effective concentration (EC50) was 84 nM and the Emax was determined as 72%.

As for `Cc1cccnc1-c1cc2n(n1)CCN(Cc1cnc(C(F)(F)F)nc1N)C2` [Example 84, 5-{[2-(3-Methylpyridin-2-yl)-6,7-dihydropyrazolo[1,5-a]pyrazin-5(4H)-yl]methyl}-2-(trifluoromethyl)pyrimidine-4-amine], the EC50 came to 118 nM and the Emax was found to be 68%.

Take `Cc1cccnc1-c1cc2n(n1)CCN(Cc1nc(C)n3ccccc13)C2` [Example 85]: the EC50 was 78 nM and the Emax was 78%.

Take `Cc1cccnc1-c1cc2n(n1)CCN(Cc1ccc(C(F)(F)F)c(C#N)c1)C2` [Example 86]: the EC50 came to 52 nM and the Emax was determined as 85%.

With `Cc1cccnc1-c1cc2n(n1)CCN(Cc1cn3c(n1)CCCC3)C2` [Example 87], the EC50 turned out to be 62 nM and the Emax was determined as 47%.

As for `Cc1cccnc1-c1cc2n(n1)CCN(Cc1cnn3c1CCCC3)C2` [Example 88], the half-maximal effective concentration (EC50) is 93 nM and the Emax was found to be 54%.

With `Cc1cccnc1-c1cc2n(n1)CCN(Cc1cnn3ccccc13)C2` [Example 89], the EC50 worked out at 47 nM and the Emax turned out to be 39%.

As to `Cc1cccnc1-c1cc2n(n1)CCN(Cc1cc3ccccn3n1)C2` [Example 90], the EC50 worked out at 29 nM and the Emax is 55%.

With `Cc1cccnc1-c1cc2n(n1)CCN(Cc1cc3n(n1)CCCC3)C2` [Example 91], the 50% effective concentration (EC50) is 49 nM and the Emax stood at 44%.

Regarding `Cc1c(-c2ccccn2)nn2c1CN(Cc1ccc(C(F)(F)F)nc1N)CC2` [Example 92], the EC50 is 60 nM and the Emax came to 64%.

Take `Cc1ccnc(CN2CCn3nc(-c4ccccn4)c(C)c3C2)c1` [Example 93]: the EC50 amounted to 23 nM and the Emax was 56%.

Take `Cc1c(-c2ccccn2)nn2c1CN(Cc1cn3c(n1)CCCC3)CC2` [Example 94]: the EC50 worked out at 42 nM and the Emax was 49%.

As to `Cc1c(-c2ccccn2)nn2c1CN(Cc1ccc(C(F)(F)F)nc1)CC2` [Example 95], the concentration giving a half-maximal response (EC50) came to 51 nM and the Emax turned out to be 56%.

For `Cc1cccnc1-c1cc2n(n1)CCN(Cc1ncn3ccccc13)C2` [Example 96], the EC50 was 37 nM and the Emax is 57%.

As to `Cc1cccnc1-c1cc2n(n1)CCN(Cc1ccc(Cl)cn1)C2` [Example 97], the half-maximal effective concentration (EC50) is 49 nM and the Emax was 85%.

Regarding `Cc1ccc(CN2CCn3nc(-c4ccccn4)cc3C2)nc1N` [Example 98], the concentration for a half-maximal effect (EC50) came out at 20 nM and the Emax amounted to 54%.

Regarding `Cc1ccc(CN2CCn3nc(-c4ncccc4C)cc3C2)cc1C#N` [Example 99], the EC50 was found to be 1.1 nM and the Emax worked out at 77%.

As to `Cc1cccnc1-c1cc2n(n1)CCN(Cc1n[nH]c3cc(F)ccc13)C2` [Example 100], the EC50 was 20 nM and the Emax amounted to 79%.

Regarding `Cc1ccc2c(CN3CCn4nc(-c5ncccc5C)cc4C3)n[nH]c2c1` [Example 101], the EC50 stood at 78 nM and the Emax is 67%.

`Fc1cccc2[nH]nc(CN3CCn4nc(-c5ccccn5)cc4C3)c12` [Example 102]: the concentration for a half-maximal effect (EC50) was found to be 116 nM and the Emax was determined as 48%.

Take `Cc1cnc(N)c(CN2CCn3nc(-c4ncccc4C)cc3C2)c1` [Example 103]: the half-maximal effective concentration (EC50) came out at 127 nM and the Emax was 53%.

Take `Cc1cccnc1-c1cc2n(n1)CCN(Cc1n[nH]c3c(C)cccc13)C2` [Example 104]: the concentration for a half-maximal effect (EC50) is 18 nM and the Emax amounted to 67%.

`Cc1cccnc1-c1cc2n(n1)CCN(Cc1ccc(C(F)(F)F)nc1N)C2` [Example 105]: the EC50 worked out at 69 nM and the Emax was determined as 79%.
